Test results from a melting point compilation (Tetko et al.; mined from patent text by program, amines drawn as free bases though some values may be those of a salt).

SMILES | melting point [°C]
Cc1cc(C(C)C(=O)O)n(C)c1C(=O)c1ccc(Cl)cc1 (configuration not stated) | 153 to 154
CSc1ccc(-c2n[nH]c(=O)cc2-c2ccc(Cl)cc2)cc1 | 202 to 204
O=c1c2c(n(-c3ccccc3)c3ncccc13)OC(CI)C2 (configuration not stated) | 178 to 180
CCN(CC)C(=CC(=O)OC)N1C(=O)C(=[N+]=[N-])c2ccccc21 | 175 to 177
CSC(=O)C(=O)c1nsc(NC=O)n1 | 186 to 187
CCc1ccccc1-c1nc(-c2ccccc2)n[nH]1 | 124 to 126
CCN(CC)CCNC(=O)c1cc(Cl)c(N)cc1OCC(C)=O | 105 to 106
CCOC(=O)CCC(=O)c1ccc(CCNS(=O)(=O)c2cccc(Cl)c2)cc1 | 64 to 66
COCC(C)(C)Cc1cc(N(C)C)ccn1 | 56 to 58
CN1CCCCC1CCc1ccccc1NC(=O)c1ccc(C(C)(C)C)cc1 (configuration not stated) | 101 to 120
Cc1cccc(I)c1C(=O)Nc1ccccc1[N+](=O)[O-] | 115
C#CCc1c(C)nc2c(OCc3ccccc3OC)cccn12 | 134 to 136
NC(=O)c1cccc(OCc2ccccc2)c1 | 136 to 140
Clc1ccc(Cn2ccc3cc(OCc4ccncc4)ccc32)cc1 | 105 to 107
Cc1cc(O)ccc1-c1ccc(N)cc1 | 156 to 157
O=C(Nc1ccc(CN2CCC(=O)C(=C3SC=CS3)C2=O)cc1)OCc1ccccc1 | 175 to 176
Cc1nc(N2CCN(Cc3ccc(C(F)(F)F)cc3)C2=O)sc1CO | 153 to 154
CCOC(=O)C(=O)NCc1ccccc1 | 47 to 50
COc1ccc(N2CCN(c3cccc(C)c3)CC2)nn1 | 137
CSc1cccc(Cc2sc(NC(C)=O)nc2C=O)c1 | 148 to 150
O=C(Nc1nc(Cl)c(C(=O)NCc2ccccc2)s1)c1ccccc1 | 247 to 249
O=C(O)c1ccc(CCCBr)cc1 | 120
CCn1cc(C(=O)OC)c(=O)c2cc(F)c(N3CCNCC3)cc21 | 179 to 181
Cc1cc(N)ccc1N1CCOCC1 | 83 to 84
O=C1NCCc2c[nH]c3cccc1c23 | 234
CCCCCCCCCCCCCCCCCCCCCC(=O)OCC1CC1 | 44

SMILES | melting point [°C]
Cc1ccc(/C=C/C(=O)N[C@@H]2N=C(c3ccccc3)c3ccccc3N(C)C2=O)cc1 | 133 to 135
Cc1c(C(O)C(C)(C)C)cc(I)[nH]c1=O (configuration not stated) | 186 to 187
O=C(NCCCCOc1ccc(-n2ccnc2)cc1)c1cccc2ccccc12 | 157 to 159
COc1cc(OCc2ccccn2)ccc1/C=C/c1cc(/C=C/c2c[nH]c3ccccc23)n[nH]1 | 112 to 116
Nc1sc(-c2cc(F)cc(F)c2)c(CN(C2CCCCC2)C2CCCCC2)c1C(=O)c1ccc(Cl)cc1 | 163 to 166
c1ccc(N2CCN(CCCc3[nH]nc4c3CCCC4)CC2)cc1 | 92 to 94
N#Cc1cnc2ccsc2c1Nc1ccc(Cl)cc1Cl | 198 to 200
COC(=O)C1=C(c2ccc(OC)cc2)C(c2ccc(OC)cc2)OC1=O (configuration not stated) | 107 to 109
O=c1c(Cl)c(S(=O)C2CCCCC2)cnn1-c1ccccc1 (configuration not stated) | 128 to 130
Cc1cccc(NC(N)=S)n1 | 188 to 190
Cc1[nH]c(=O)c(-c2csc(-c3ccnc(NCCNC(C)C)c3)n2)cc1C(=O)NCCNC(C)C | > 260
CCN(C(=O)N1CCN(c2cc(OC)cc(OC)c2)CC1)c1nc(C)c(C)nc1OC | 78 to 80
CNC(=N)Nc1c(Cl)cccc1Cl | 140
COC(=O)c1ccc(C(=O)NC(C)C)cc1S(N)(=O)=O | 203 to 205
Cc1ccc(NC(=N)c2ccccc2)cc1NC(=O)/C=C/c1ccccc1C(F)(F)F | 220 to 222
CC(C)Cn1c(=O)n(C)c(=O)c2c(Sc3ccc(N)cn3)c(Cc3cccc4ccccc34)sc21 | 208 to 209
CC1(C)CC(c2ccc3ccccc3c2)c2ccc(O)cc2O1 (configuration not stated) | 189 to 191
CC(=Cc1ccc2ccccc2c1)c1ccc(C)cc1 | 109
O=C(NC1CCCCC1)NS(=O)(=O)c1ccc2c(c1)CCN(C(=O)N1CCCCCC1)CC2 | 155 to 156
Cc1cccc(NC(=O)NCC(=O)N(CC(=O)OC(C)(C)C)c2ccccc2F)c1 | 148
c1ccc2c(c1)nc1snc(-c3cnccn3)n12 | 255 to 256
C#CCOc1cc(-n2c(=S)n3n(c2=S)COCC3)c(F)cc1Cl | 167 to 169
CCn1c(=O)c2[nH]c(C(C)C)nc2n(Cc2ccc(Cl)cc2)c1=O | 221 to 222
COc1cc2nc(N3CCN(C(=O)c4ccco4)CC3)[nH]c2cc1OC | 143 to 145
Cc1nc2cc(Cl)ccc2c2ccccc12 | 129 to 131
Cn1cc(C(=O)c2ccccc2)c2c(Nc3cccc(N)c3)ncnc21 | 170 to 173
